Structures can show the parent of a compound that is named as a salt.
Tests used:
Sprague-Dawley rats = test: stress related eating (clamp tightened on the tail) in rats; assay type: in vivo, rat; details: for Stress Eating, relative amount with 0 mg/kg as 100% / Stressed Rats, average amount of food consumed per rat / Stress Eating / Control Rats, average amount of food consumed per rat: 8 hours; for Stressed Rats, average amount of food consumed per rat: clamp tightened on the tail; for Stress Eating: stressed minus control rats; for stress-related eating: stressed rats, 1-10 mg/kg; for Control Rats, average amount of food consumed per rat: untightened clamp
Procedure: The effect of the hydrochloride salt of 6-chloro-2-(1-piperazinyl)pyrazine (MK-212, which is obtained from Merck & Co., Inc. Whitehouse Station, N.J.), on stress related eating in animals is determined through the observation of the effect of experimental compounds on stress-related eating in adult Sprague-Dawley rats. These rats are widely used as a recognized animal model useful in predicting the effect of serotoninergic drugs in humans.
In these experiments, a group of 5 adult female and 5 adult male Sprague-Dawley rats weighing between 200 and 250 grams each are used as control animals. An untightened clamp is placed on the tail of these animals. The untightened clamp provides the unstressed condition. Each animal is placed in an individual cage and allowed free access to food. The amount of food consumed is determined at 2, 4 and 8 hours after the initiation of the trial. A similar group of rats has a clamp tightened on the tail. The amount of food consumed by this stressed group of rats is shown in the 0 mg/kg column. […] similar groups of stressed rats are injected with 1, 2, 5, or 10 mg/kg body weight of MK-212 one hour before initiation of the experiment.
The relative amounts of stress eating with the amount at 0 mg/kg MK-212 as 100% is also shown in the Stress Eating row. The preferred daily dose of MK-212 is about 1 mg/kg body weight to about 10 mg/kg body weight.

obese, stressed patients [1] = test: CES-D test of current levels of emotional distress in patients; assay type: in vivo, human
Excerpt: (§1) A subgroup of obese individuals is identified, which individuals describe themselves as being unable to control their eating and who attempt to continue on a weight-reducing diet when experiencing emotional distress. […]
(§2) Objective measurements of emotional distress are made in some patients using the CES-D (Center for […] Depression Form) test, which measures current levels of emotional distress (Radloff, et al., The CES-D Scale: A Self Report Depression Scale for Research in the General Population Applied Psychological Measurement 1: 385-401, 1977); and the POMS (Profile of Mood States test, that assesses tension, depression, anger and confusion (McNair, et al., Profile of Mood States Manual;San Diego: Educational and Industrial Testing Service, 1971); both of these references are hereby incorporated by reference in their entirety. These tests are also given monthly during the treatment period. At the same time, patients also complete questionnaires that ask the patients to rate their appetite and hunger, and also to rate their tendency to eat in response to a variety of emotional and stressful triggers. The patients are also weighed monthly.

obese, stressed patients [2] = test: questionnaire rating appetite and hunger; assay type: in vivo, human; parameters: Appetite and Cravings: scale not given here
Excerpt: as §1, §2

obese, stressed patients [3] = test: questionnaire rating tendency to eat in response to emotional and stressful triggers; assay type: in vivo, human; parameters: Emotional Triggers: scale not given here
Excerpt: as §1, §2

[4] = 1 mg/kg injected one hour before
[5] = 2 mg/kg injected one hour before
[6] = 5 mg/kg injected one hour before
[7] = 10 mg/kg injected one hour before

Structure (SMILES)	Stress Eating, relative amount with 0 mg/kg as 100% (Sprague-Dawley rats; 1 mg/kg)	Stress Eating, relative amount with 0 mg/kg as 100% (Sprague-Dawley rats; 2 mg/kg)	Stress Eating, relative amount with 0 mg/kg as 100% (Sprague-Dawley rats; 5 mg/kg)	Stress Eating, relative amount with 0 mg/kg as 100% (Sprague-Dawley rats; 10 mg/kg)	Stressed Rats, average amount of food consumed per rat (Sprague-Dawley rats; [4]) [g]	Stressed Rats, average amount of food consumed per rat (Sprague-Dawley rats; [5]) [g]	Stressed Rats, average amount of food consumed per rat (Sprague-Dawley rats; [6]) [g]	Stressed Rats, average amount of food consumed per rat (Sprague-Dawley rats; [7]) [g]	Stress Eating (Sprague-Dawley rats; 1 mg/kg) [g]	Stress Eating (Sprague-Dawley rats; 2 mg/kg) [g]	Stress Eating (Sprague-Dawley rats; 5 mg/kg) [g]	Stress Eating (Sprague-Dawley rats; 10 mg/kg) [g]	stress-related eating (Sprague-Dawley rats)	Control Rats, average amount of food consumed per rat (Sprague-Dawley rats; [4]) [g]	Control Rats, average amount of food consumed per rat (Sprague-Dawley rats; [5]) [g]	Control Rats, average amount of food consumed per rat (Sprague-Dawley rats; [6]) [g]	Control Rats, average amount of food consumed per rat (Sprague-Dawley rats; [7]) [g]	also measured
Clc1cncc(N2CCNCC2)n1 [MK-212, 6-chloro-2-(1-piperazinyl)pyrazine]	(83%)	(76%)	(25%)	(0%)	4.14	3.78	2.01	0.97	2.82	2.58	0.85	0.0	reduces stress-related eating	1.32	1.20	1.16	1.03	
Cc1ccc2c(c1)-c1c(ccn1C[C@H](C)N)C2(C)C [Ro 60-175/ORG 35030, (S)-2-(4,4,7-trimethyl-1,4-dihydro-indol (1,2-B)pyrrol-1-yl)-1-methylethylamine]	(74%)	(4%)	(3%)	(1%)	3.66	1.43	1.30	1.16	2.38	0.13	0.10	0.03	reduces stress related eating	1.28	1.30	1.20	1.13	
CN(C)CCC=C1c2ccccc2CCc2ccccc21 [amitriptyline hydrochloride]																		Mood Scores CES-D (obese, stressed patients [1]; patient twelve, 75 then 100 mg/day, Month 1, baseline 29): 22; Mood Scores CES-D (obese, stressed patients [1]; patient twelve, 75 then 100 mg/day, Month 2, baseline 29): 20; Mood Scores CES-D (obese, stressed patients [1]; patient twelve, 75 then 100 mg/day, Month 3, baseline 29): 23; Mood Scores CES-D (obese, stressed patients [1]; patient twelve, 75 then 100 mg/day, Month 4, baseline 29): 18; Appetite and Cravings (obese, stressed patients [2]; patient twelve, 75 then 100 mg/day, Month 1, baseline 19): 16; Appetite and Cravings (obese, stressed patients [2]; patient twelve, 75 then 100 mg/day, Month 2, baseline 19): 8; Appetite and Cravings (obese, stressed patients [2]; patient twelve, 75 then 100 mg/day, Month 3, baseline 19): 13; Appetite and Cravings (obese, stressed patients [2]; patient twelve, 75 then 100 mg/day, Month 4, baseline 19): 8; Emotional Triggers (obese, stressed patients [3]; patient twelve, 75 then 100 mg/day, Month 1, baseline 25): 22; Emotional Triggers (obese, stressed patients [3]; patient twelve, 75 then 100 mg/day, Month 2, baseline 25): 13; Emotional Triggers (obese, stressed patients [3]; patient twelve, 75 then 100 mg/day, Month 3, baseline 25): 5; Emotional Triggers (obese, stressed patients [3]; patient twelve, 75 then 100 mg/day, Month 4, baseline 25): 3
CCN[C@@H](C)Cc1cccc(C(F)(F)F)c1 [dexfenfluramine hydrochloride]																		Mood Scores CES-D (obese, stressed patients [1]; patient eleven, 30 mg/day, Month 1, baseline 19): 5; Mood Scores CES-D (obese, stressed patients [1]; patient eleven, 30 mg/day, Month 2, baseline 19): 2; Mood Scores CES-D (obese, stressed patients [1]; patient eleven, 30 mg/day, Month 3, baseline 19): 3; Appetite and Cravings (obese, stressed patients [2]; patient eleven, 30 mg/day, Month 1, baseline 9): 6; Appetite and Cravings (obese, stressed patients [2]; patient eleven, 30 mg/day, Month 2, baseline 9): 8; Appetite and Cravings (obese, stressed patients [2]; patient eleven, 30 mg/day, Month 3, baseline 9): 3; Appetite and Cravings (obese, stressed patients [2]; patient eleven, 30 mg/day, Month 4, baseline 9): 5; Emotional Triggers (obese, stressed patients [3]; patient eleven, 30 mg/day, Month 1, baseline 30): 12; Emotional Triggers (obese, stressed patients [3]; patient eleven, 30 mg/day, Month 2, baseline 30): 13; Emotional Triggers (obese, stressed patients [3]; patient eleven, 30 mg/day, Month 3, baseline 30): 5
